According to patent US5011828A, “Immunostimulating guanine derivatives, compositions and methods” (priority 1988, dated 1991):

Columns and labels:
[1] = system: SJL splenocytes (irradiated CBA/CaJ splenocyte stimulators); assay: T cell proliferation in mixed leukocyte cultures, SJL splenocytes; type: cell-based, mouse; conditions: responder +
Excerpt: In evaluating the effect of a guanosine derivative on alloantigen-induced proliferation, it is imperative to minimize the simultaneous mitogenic response of B cells to contact with a guanosine derivative. Spleen cells from SJL mice (whose B cells are hyporesponsive to the mitogenic effect of a guanosine derivative, but not to its adjuvant activity) were used as responder cells in two studies. Those responder cells were stimulated with irradiated allogenic cells (from CBA/CaJ mice) in the presence of no added nucleoside, incremental amounts of a guanosine derivative of the invention, 7M8oGuo, or with another guanosine derivative, 8MGuo, used as a positive control.
^1 Plus signs (+) are utilized to indicate the presence of the
material of the column heading in the culture medium, whereas minus signs
(-) are utilized to show absence of such a material from the culture
^3 Allogeneic cells used to costimulate proliferation, after exposure
T Helper Cell Activation. 1.5×10^5 viable spleen cells from SJL mice or CBA/CaJ mouse thymocytes were cultured with or without an equal number of irradiated (2500 rads) spleen cells from CBA/CaJ or BDFl mice respectively, in 0.2 ml of culture medium in the presence of incremental concentrations of the exemplary 7,8-disubstituted guanine derivatives. The lymphocyte culture medium utilized was that described before, and was further supplemented with 2-mercaptoethanol to a final concentration of 50 uM. Thymocyte cultures also contained 10 percent (v/v) of a concanavalin A-conditioned rat spleen cell medium sold under the name Rat T Cell Monoclone by Collaborative Research. Following 90 hours of culture, one microCurie [^3 H]TdR per culture was admixed, and the resulting culture was maintained for a further six hour time period.
The cultures were harvested with a Brandel cell harvester (M24V, Biological Research and Development Laboratories, Rockville, Md.) onto glass fiber filter disks. Filter disks were transferred to plastic scintillation vials, covered with liquid scintillation cocktail, and counted in a Beckman LS5700 liquid scintillation counter.

[2] = system: human peripheral blood lymphocytes (sheep red blood cells as antigen); assay: Antigen-specific adjuvanticity: direct anti-SRBC plaque forming cells, human system; type: cell-based; conditions: for Peak Direct anti-SRBC PFC/Culture: Table 7, second group
[3] = system: murine lymphocytes (sheep red blood cells as antigen); assay: Antigen-specific adjuvanticity: direct anti-SRBC plaque forming cells, murine system; type: cell-based, mouse; conditions: for Direct anti-SRBC PFC/Culture at supraoptimal concentration: 3 × 10^-4 M
Summary of the method: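 Murine spleen cells (5×10^6 to 10^7) cultured 4 or 5 days in 1.0 ml 5% FCS RPMI 1640, 37 °C, 10% CO2, with or without SRBC immunogen. Anti-SRBC direct plaque-forming cells counted per culture by modified Jerne–Nordin hemolytic plaque assay with guinea pig complement; mean ± standard error at peak concentration.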

In the case of C=CCn1c(=S)n([C@@H]2O[C@H](CO)[C@@H](O)[C@H]2O)c2nc(N)[nH]c(=O)c21 [7a8MGuo, 7-(2-Propenyl)-8-thioxoguanosine], the “[3H] TdR Uptake” value ([1]; Study 1, stimulator +, 10^-5 M) is reported as 67,500 ± 2900 counts per minute, the “[3H] TdR Uptake” value ([1]; Study 1, stimulator -, 10^-5 M) is reported as 36,700 ± 2400 counts per minute and the “[3H] TdR Uptake” value ([1]; Study 2, stimulator +, 10^-5 M) is reported as 36,400 ± 3800 counts per minute. The “[3H] TdR Uptake” value ([1]; Study 2, stimulator -) was 19,100 ± 1100 counts per minute, the “Peak Direct anti-SRBC PFC/Culture” value ([2]; person a) was 673 PFC/Culture and the “Peak Direct anti-SRBC PFC/Culture” value ([2]; person b) was 6475 PFC/Culture. The “Peak Direct anti-SRBC PFC/Culture” value ([2]; person c) was 3058 PFC/Culture, the “Average 1 Log Plaque Values” ([2]; Table 9, human, * = single study) was 45,630 ± 28,808 per micromole and the “Direct anti-SRBC PFC/Culture at supraoptimal concentration” value ([3]; Table 5, supraoptimal concentration (*)) was 925 ± 80 PFC/Culture. The “Peak Direct anti-SRBC PFC/Culture” value ([3]; Table 5, murine system, at peak concentration) was 1850 ± 70 PFC/Culture, the “Peak Direct anti-SRBC PFC/Culture” value ([3]; Table 6, murine system, at peak concentration) was 1867 ± 150 PFC/Culture and the “Peak Direct anti-SRBC PFC/Culture” value ([3]; Table 6, study a) was 1850 ± 50 PFC/Culture. The “Direct anti-SRBC PFC/Culture at supraoptimal concentration” value ([3]; Table 6, study b, supraoptimal amount (*)) was 925 ± 80 PFC/Culture, the “Peak Direct anti-SRBC PFC/Culture” value ([3]; Table 6, study c) was 1975 ± 109 PFC/Culture and the “Direct Anti-SRBC PFC/Culture” value ([3]; Table 8, 1 × 10^-5 M) was 1049 PFC/Culture. For the same compound, the “Average 1 Log Plaque Values” ([3]; Table 9, murine, * = single study) was 326,840 ± 170,907 per micromole and the “adjuvanticity higher / more active than comparison compound of U.S. Pat. No. 4,643,992” value ([3]; murine system (Table 5), vs 7m8oGuo or compounds of that patent) was “more than 100%”.
